The record followed here is PubChem BioAssay (NCI).

Structures are written as SMILES.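 Following 48 hours of exposure in 96-well plates, responses at five concentrations were used to interpolate endpoints linearly. TGI denotes the concentration required for complete inhibition of growth.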 Where only a bound is given, the exact number is not on record here.

Among the test systems are UO-31 renal; HCT-116 colon; OVCAR-3 ovarian; KM12 colon; HL-60(TB) leukemia; EKVX NSCLC; HT29 colon; NCI/ADR-RES ovarian; U251 CNS; UACC-62 melanoma; SF-268 CNS.
Holding throughout (experiment): NCI anticancer screen, dose series, 48 h

On to `CCCCN1C(=O)C[C@H]2[C@@H]3CCc4cc(OCCN5CCCC5)ccc4[C@H]3CC[C@]2(C)C1=O`, for which the TGI in the assay with UO-31 renal was 15.6 µM; in the assay on HCT-116 colon, 16.4 µM; with OVCAR-3 ovarian, 23.7 µM; with KM12 colon it was 21.9 µM; in the assay with HL-60(TB) leukemia, greater than 23.2 µM; with EKVX NSCLC, 30.1 µM. Further, the TGI came out at 5.06 µM with HT29 colon; 38 µM in the assay with NCI/ADR-RES ovarian; 19.4 µM in the assay with U251 CNS; 10.4 µM in the assay with UACC-62 melanoma; 28 µM with SF-268 CNS.

For `Nc1nc(Cl)cc(NCC2(CO)CCC(OCc3ccccc3)C2)n1` (stereo not drawn), the TGI in the assay on UO-31 renal was 99.4 µM; in the assay with HCT-116 colon it was greater than 100 µM; in the assay with OVCAR-3 ovarian, greater than 100 µM; in the assay on KM12 colon, 94.6 µM; in the assay on HL-60(TB) leukemia it was 86.8 µM; in the assay on EKVX NSCLC it was 59.4 µM. In addition, the TGI is 34 µM in the assay on HT29 colon; 25 µM with NCI/ADR-RES ovarian; greater than 100 µM with U251 CNS; greater than 100 µM with UACC-62 melanoma; greater than 100 µM in the assay on SF-268 CNS.

Turning to `c1ccc(-c2cc(-c3cc(-c4ccccc4)no3)on2)cc1`, the TGI in the assay with UO-31 renal, in the assay on HCT-116 colon, with OVCAR-3 ovarian, in the assay on KM12 colon, in the assay on HL-60(TB) leukemia and with EKVX NSCLC was greater than 100 µM each time. For the same compound, the TGI in the assay on HT29 colon, in the assay with NCI/ADR-RES ovarian, with U251 CNS, in the assay on UACC-62 melanoma and in the assay with SF-268 CNS was greater than 100 µM in each case.

As for `O=C(NC1CCN(Cc2ccccc2)CC1)c1ccccc1I`, the TGI with UO-31 renal was 30.1 µM; with HCT-116 colon, 31.1 µM; in the assay with OVCAR-3 ovarian, greater than 100 µM; with KM12 colon it was 34.6 µM; in the assay with HL-60(TB) leukemia, greater than 100 µM; in the assay on EKVX NSCLC, greater than 100 µM. Also, the TGI in the assay on HT29 colon is 34.8 µM; with NCI/ADR-RES ovarian it was 92.3 µM; in the assay on U251 CNS, 63.3 µM; in the assay with UACC-62 melanoma, 34.9 µM; with SF-268 CNS, greater than 100 µM.

As for `N#C/C(N)=C(\C#N)N=CNc1ccccc1N`, the TGI with UO-31 renal, in the assay with HCT-116 colon, with OVCAR-3 ovarian, with KM12 colon, in the assay with HL-60(TB) leukemia and in the assay on EKVX NSCLC was greater than 100 µM throughout. In addition, the TGI in the assay with HT29 colon, in the assay with NCI/ADR-RES ovarian, in the assay with U251 CNS, in the assay on UACC-62 melanoma and with SF-268 CNS was greater than 100 µM throughout.

As to `CC(C)(Cc1ccccc1)Cc1cc(O)ccc1O`, the TGI in the assay with UO-31 renal is 26.3 µM; in the assay with HCT-116 colon, 31.6 µM; with OVCAR-3 ovarian, 25.3 µM; in the assay with KM12 colon, 32.1 µM; with HL-60(TB) leukemia it was 4.8 µM; in the assay on EKVX NSCLC, 65.8 µM. Further, the TGI in the assay on HT29 colon turned out to be 48.5 µM; in the assay with NCI/ADR-RES ovarian, 42.9 µM; with U251 CNS it was 32.2 µM; in the assay on UACC-62 melanoma, 61.8 µM; in the assay with SF-268 CNS it was 35.7 µM.

With `CCC(C)(C)c1ccc(Oc2cccc(C(=O)O)c2)cc1`, the TGI was greater than 100 µM in the assay on UO-31 renal; greater than 100 µM in the assay with HCT-116 colon; 70.1 µM with OVCAR-3 ovarian; greater than 100 µM in the assay with KM12 colon; greater than 100 µM in the assay with HL-60(TB) leukemia; greater than 100 µM in the assay with EKVX NSCLC. Further, the TGI with HT29 colon, in the assay on NCI/ADR-RES ovarian, with U251 CNS, in the assay on UACC-62 melanoma and in the assay with SF-268 CNS was greater than 100 µM each time.

Turning to `CC1(c2nc3cc(Cl)c(Cl)cc3[nH]2)CCC(C(=O)O)C(C)(C)O1` (stereo not drawn), the TGI in the assay with UO-31 renal, in the assay with HCT-116 colon, in the assay on OVCAR-3 ovarian, with KM12 colon, with HL-60(TB) leukemia and with EKVX NSCLC was greater than 100 µM throughout. Moreover, the TGI with HT29 colon, in the assay on NCI/ADR-RES ovarian, in the assay on U251 CNS, in the assay on UACC-62 melanoma and in the assay on SF-268 CNS was greater than 100 µM throughout.

As to `O=C(NO)c1ccc(OCc2ccccc2)cc1`, the TGI in the assay on UO-31 renal was 72.8 µM; in the assay on HCT-116 colon it was 27.4 µM; in the assay with OVCAR-3 ovarian, greater than 100 µM; in the assay on KM12 colon it was greater than 100 µM; in the assay with HL-60(TB) leukemia, greater than 100 µM; in the assay on EKVX NSCLC, greater than 100 µM. The TGI is greater than 100 µM with HT29 colon; 32.1 µM in the assay on NCI/ADR-RES ovarian; greater than 100 µM in the assay on U251 CNS; 36.5 µM with UACC-62 melanoma; greater than 100 µM in the assay on SF-268 CNS.

With `O=C1/C(=C/c2ccc(O)cc2)CCc2ccccc21`, the TGI in the assay with UO-31 renal was 47.9 µM; in the assay on HCT-116 colon, 31.6 µM; in the assay on OVCAR-3 ovarian, 52.7 µM; with KM12 colon, 32.2 µM; in the assay on HL-60(TB) leukemia it was 36.7 µM; with EKVX NSCLC, 58.3 µM. In addition, the TGI in the assay with HT29 colon came to 45 µM; in the assay on NCI/ADR-RES ovarian, 44.8 µM; with U251 CNS it was 69.7 µM; in the assay with UACC-62 melanoma it was 46.2 µM; in the assay on SF-268 CNS, 37.6 µM.

Turning to `O=c1[nH][nH]c(=S)c(=O)[nH]1`, the TGI in the assay on UO-31 renal, in the assay with HCT-116 colon, in the assay on OVCAR-3 ovarian, in the assay with KM12 colon, in the assay on HL-60(TB) leukemia and in the assay with EKVX NSCLC was greater than 100 µM each time. Further, the TGI in the assay with HT29 colon, in the assay with NCI/ADR-RES ovarian, in the assay with U251 CNS, in the assay on UACC-62 melanoma and with SF-268 CNS was greater than 100 µM each time.

For the compound `Cc1cccc(C(O)c2ccccn2)c1O` (stereo not drawn), the TGI in the assay with UO-31 renal, in the assay on HCT-116 colon, in the assay with OVCAR-3 ovarian, in the assay on KM12 colon, with HL-60(TB) leukemia and in the assay with EKVX NSCLC was greater than 100 µM throughout. The TGI in the assay with HT29 colon, in the assay on NCI/ADR-RES ovarian, in the assay with U251 CNS, with UACC-62 melanoma and in the assay with SF-268 CNS was greater than 100 µM in each case.

On to `CCOC(=O)c1cc(Cl)ccc1OC(N)=O`, for which the TGI in the assay with UO-31 renal, with HCT-116 colon, with OVCAR-3 ovarian, with KM12 colon, in the assay with HL-60(TB) leukemia and in the assay with EKVX NSCLC was greater than 100 µM each time. Besides, the TGI in the assay with HT29 colon, in the assay with NCI/ADR-RES ovarian, in the assay with U251 CNS, with UACC-62 melanoma and in the assay on SF-268 CNS was greater than 100 µM each time.
